# Reference: US20150173356A1, “COMPOSITIONS OF VOLATILE ORGANIC COMPOUNDS AND METHODS OF USE THEREOF” (Synthetic Genomics, Inc., priority 2009, published 2015)
# Legend:
# Assay in all cases: Petri plate (PDA) volatile bioassay, liquid in a small cup in the centre of the plate
# Format in all cases: cell-based
# Settings in all cases: 2.5-20 microliters in cup, sealed plate, 3 days
# Pythium ultimum = test system: Pythium ultimum
# Description: (§1) To test the bioactivity, the mixture was placed in a small cup in the center of a Petri plate with potato dextrose agar (PDA) (Strobel et al., 2001 Microbiology 147: 2943-2950). The volumes of liquid tested were 0, 2.5, 5.0, 10.0 and 20 microliters as per Strobel et al., supra. Then small cubes of fungal inoculum grown on PDA were also applied to the plate. The plates were sealed with parafilm and incubated for 3 days, at which time measurements of hyphal development were made. Also, after 3 days the small plug of fungal inoculum was removed from the plate and transferred to a fresh PDA plate to determine if the test fungus was still alive (capable of growth) and this was recorded.
# Ganoderma boninense = test system: Ganoderma boninense
# Description: as §1
# Phytophthora palmivora = test system: Phytophthora palmivora
# Description: as §1
SMILES,growth inhibition (hyphal development) (Pythium ultimum),test fungus still alive (capable of growth) after transfer of inoculum plug to fresh PDA (Pythium ultimum),growth inhibition (hyphal development) (Ganoderma boninense),test fungus still alive (capable of growth) after transfer of inoculum plug to fresh PDA (Ganoderma boninense),growth inhibition (hyphal development) (Phytophthora palmivora),test fungus still alive (capable of growth) after transfer of inoculum plug to fresh PDA (Phytophthora palmivora)
"CC(C)C(=O)O [isobutyric acid, 2-methyl propanoic acid]",inhibited,not killed,inhibited,not killed,inhibited,not killed
"COC(=O)C(C)C [methyl isobutyrate, methyl-2-methylpropanoate]",no growth inhibition,–,no growth inhibition,–,no growth inhibition,–
